Broadly, the EC50 is the concentration at which the effect is half-maximal. Low readings indicate greater potency, high ones weaker potency.

Drawing on patent publication US20240139185A1, “COMPOUNDS THAT PARTICIPATE IN COOPERATIVE BINDING AND USES THEREOF” (Revolution Medicines, Inc., priority 2018, published 2024), this text covers Kd, EC50 and IC50 for 13 molecules.

For one test, the target named is cyclophilin A (CYPA) (Homo sapiens, UniProt P62937). The experiment in a line: CYPA-compound binary complex formation by SPR. Conditions: read-out: CYPA Binding Affinity. In a few lines:
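CypA-Avi captured on a Biotin CAPture chip (4 μg/ml), reference flow cell subtracted. Compounds injected as 10-point 2-fold dilutions from 50 μM in HBS-P+ pH7.4 with 2% DMSO; 60 s association and 60 s dissociation, solvent-corrected. Affinity obtained by steady-state fitting.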
Background: Surface plasmon resonance follows binding to a sensor surface in real time, without labels.

Test [1] concerns the target T1, BRAF-GTP-KRAS-G12C complex (Homo sapiens, UniProt P01116+P62937, G12C).
T1 construct: 50 nM of His6-KRas G12C-GTP (1-169); 500 nM of tagless CypA (1-165)
The test can be described thus: KRAS-BRAF complex disruption through competition with CYPA-compound by TR-FRET. Conditions: biochemical BRAF-KRAS G12C-GTP disruption assay EC50, with CYPA. In a few lines: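 His6-KRAS G12C-GTP (1-169, 50 nM) with tagless CypA (1-165, 500 nM) was incubated with compound for 3 h at room temperature in pH 7.3 Hepes/NaCl/MgCl2 buffer containing GST-BRAF RBD. Anti-His Eu (10 nM) and anti-GST APC (50 nM) were then added for 1.5 h, and the 665/615 nm TR-FRET ratio was read. EC50 from 4-parameter fit; for specificity, wild-type KRAS replaced G12C, and CypA was omitted to test presenter dependence.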
For orientation: In TR-FRET formats the signal depends on donor and acceptor labels being close together.

For a further test, the system named is pERK in H358 cells. The experiment in a line: pERK inhibition in H358 cells. The class given is cell-based, human. Conditions: 4 hours treatment, read-out: Cellular pERK inhibition. The essentials: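 Human lung cancer H358 cells in RPMI/10% FBS were exposed to compound or DMSO for 4 h. Fixed and permeabilized cells were stained overnight at 4 C with anti-phospho-ERK1/2 (Thr202/Tyr204). Near-infrared imaging read the pERK signal at 800 nm, with DRAQ5 at 700 nm.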

Each structure is given as a SMILES string. Bounds are passed on as bounds.

In the case of `COCc1nc2ccc3cc2n1CC(C)(C)COC(=O)[C@@H]1CCCN(N1)C(=O)[C@@H](NC(=O)[C@H](C(C)C)N(C)C(=O)C1CN(C(=O)CCl)C1)Cc1cc(O)cc-3c1` [Compound 143], on cyclophilin A (CYPA), the Kd is 5 to 15 µM. In addition, the EC50 in test [1] is not above 0.5 µM. The IC50 with pERK in H358 cells was more than 10 µM.
With `Cc1nc2ccc3cc2n1C[C@H](C)COC(=O)[C@@H]1CCCN(N1)C(=O)[C@@H](NC(=O)[C@H](C(C)C)N(C)C(=O)C1CN(C(=O)CCl)C1)Cc1cc(O)cc-3c1` [Compound 147], the Kd on cyclophilin A (CYPA) was not above 5 µM. In addition, the EC50 in test [1] is not above 0.5 µM. Further, the IC50 with pERK in H358 cells was more than 10 µM.
Take `Cc1nc2ccc3cc2n1CC1(CC1)COC(=O)[C@@H]1CCCN(N1)C(=O)[C@@H](NC(=O)[C@H](C(C)C)N(C)C(=O)C1CN(C(=O)CCl)C1)Cc1cc(O)cc-3c1` [Compound 151]: the Kd at cyclophilin A (CYPA) fell in the range of 5 to 15 µM. The molecule also yielded an EC50 in test [1] not above 0.5 µM. Besides, in the test with pERK in H358 cells, the IC50 is more than 10 µM.
As to `C=CS(=O)(=O)N1CCN([C@H](C(=O)N[C@H]2Cc3cc(O)cc(c3)-c3ccc4nc(C)n(c4c3)CC(C)(C)COC(=O)[C@@H]3CCCN(N3)C2=O)C(C)C)C1=O` [Compound 152], at cyclophilin A (CYPA), the Kd was 5 to 15 µM. The EC50 in test [1] is not above 0.5 µM. In the test with pERK in H358 cells, the IC50 fell in the range of 1 to 10 µM.
For `CC(C)[C@@H](C(=O)N[C@H]1Cc2cc(O)cc(c2)-c2cc3c(ccc(C#N)c3s2)OCCCOC(=O)[C@@H]2CCCN(N2)C1=O)N(C)C(=O)C1CN(C(=O)CCl)C1` [Compound 172], the Kd at cyclophilin A (CYPA) was 5 to 15 µM. For the same molecule, the EC50 in test [1] fell in the range of 0.5 to 5 µM. Besides, the IC50 in the test on pERK in H358 cells is more than 10 µM.
On to `CC(C)[C@@H](C(=O)N[C@H]1Cc2cc(O)cc(c2)-c2ccc3nnn(c3c2)CC(C)(C)COC(=O)[C@@H]2CCCN(N2)C1=O)N(C)C(=O)C1CN(C(=O)CCl)C1` [Compound 175], for which, at cyclophilin A (CYPA), the Kd lay in the range of 5 to 15 µM. The same molecule came in with an EC50 in test [1] not above 0.5 µM. Also, in the test with pERK in H358 cells, the IC50 is more than 10 µM.
With `CC(C)[C@@H](C(=O)N[C@H]1Cc2cc(O)cc(c2)-c2ccc3c(C#N)cn(c3n2)CC(C)(C)COC(=O)[C@@H]2CCCN(N2)C1=O)N(C)C(=O)C1CN(C(=O)CCl)C1` [Compound 176], the Kd at cyclophilin A (CYPA) was 5 to 15 µM. In test [1], the EC50 is not above 0.5 µM. For the same molecule, the IC50 in the test on pERK in H358 cells was 1 to 10 µM.
In the case of `CC(C)[C@@H](C(=O)N[C@H]1Cc2cc(O)cc(c2)-c2ccc3c(c2)N(CC(C)(C)COC(=O)[C@@H]2CCCN(N2)C1=O)C(=O)C3)N(C)C(=O)C1CN(C(=O)CCl)C1` [Compound 177], the Kd at cyclophilin A (CYPA) fell in the range of 5 to 15 µM. The EC50 in test [1] was not above 0.5 µM. In addition, the IC50 in the test with pERK in H358 cells fell in the range of 1 to 10 µM.
For `CC(C)[C@@H](C(=O)N[C@H]1Cc2cc(O)cc(c2)-c2cc3c(ccn3CC(C)(C)COC(=O)[C@@H]3CCCN(N3)C1=O)cn2)N(C)C(=O)C1CN(C(=O)CCl)C1` [Compound 178] the same measures were 5 to 15 µM, 0.5 to 5 µM and more than 10 µM.
`CC(C)[C@@H](C(=O)N[C@H]1Cc2cc(O)cc(c2)-c2ccc3c(C#N)ccc(c3c2)OCCCOC(=O)[C@@H]2CCCN(N2)C1=O)N(C)C(=O)C1CN(C(=O)CCl)C1` [Compound 185]: the Kd at cyclophilin A (CYPA) is not above 5 µM. For the same molecule, the EC50 in test [1] lay within 0.5 to 5 µM. Moreover, in the test with pERK in H358 cells, the IC50 was more than 10 µM.
For `CCN1CCC(=O)N2C[C@H](C)COC(=O)[C@@H]3CCCN(N3)C(=O)[C@@H](NC(=O)[C@H](C(C)C)N(C)C(=O)C3CN(C(=O)CCl)C3)Cc3cc(O)cc(c3)-c3ccc1c2c3` [Compound 186] the same measures were 5 to 15 µM, more than 5 µM and more than 10 µM.
On to `CCN1CCCN2C[C@H](C)COC(=O)[C@@H]3CCCN(N3)C(=O)[C@@H](NC(=O)[C@H](C(C)C)N(C)C(=O)C3CN(C(=O)CCl)C3)Cc3cc(O)cc(c3)-c3ccc1c2c3` [Compound 187], for which the Kd on cyclophilin A (CYPA) lay within 5 to 15 µM. Further, the EC50 in test [1] was more than 5 µM. Besides, in the test on pERK in H358 cells, the IC50 was more than 10 µM.
With `CCN1C(=O)CCN2C[C@H](C)COC(=O)[C@@H]3CCCN(N3)C(=O)[C@@H](NC(=O)[C@H](C(C)C)N(C)C(=O)C3CN(C(=O)CCl)C3)Cc3cc(O)cc(c3)-c3ccc1c2c3` [Compound 188], the Kd at cyclophilin A (CYPA) is not above 5 µM. This molecule also gave an EC50 in test [1] of more than 5 µM. Besides, the IC50 in the test with pERK in H358 cells was more than 10 µM.
